Experimental data as given in patent EP4691482A1, “LONG-ACTING CALCITONIN ANALOG” (Chengdu Aoda Biotechnology Co., Ltd., priority 2023, dated 2024).

These molecules were tested against T1, calcitonin receptors (CTR) (Homo sapiens, UniProt P30988) (assay: cAMP determination (HTRF, cAMP Dynamic 2 Kit) in cAMP Hunter HEK293-CT-R Gs cell line). Conditions: HEK293 cell line stably expressing CT-R; intracellular cAMP, HTRF.
T1 construct: expressed in transfected cells; host or cells: cAMP Hunter HEK293-CT-R Gs cell line (HEK293, stably transfected)
T1 sequence (P30988 25-474): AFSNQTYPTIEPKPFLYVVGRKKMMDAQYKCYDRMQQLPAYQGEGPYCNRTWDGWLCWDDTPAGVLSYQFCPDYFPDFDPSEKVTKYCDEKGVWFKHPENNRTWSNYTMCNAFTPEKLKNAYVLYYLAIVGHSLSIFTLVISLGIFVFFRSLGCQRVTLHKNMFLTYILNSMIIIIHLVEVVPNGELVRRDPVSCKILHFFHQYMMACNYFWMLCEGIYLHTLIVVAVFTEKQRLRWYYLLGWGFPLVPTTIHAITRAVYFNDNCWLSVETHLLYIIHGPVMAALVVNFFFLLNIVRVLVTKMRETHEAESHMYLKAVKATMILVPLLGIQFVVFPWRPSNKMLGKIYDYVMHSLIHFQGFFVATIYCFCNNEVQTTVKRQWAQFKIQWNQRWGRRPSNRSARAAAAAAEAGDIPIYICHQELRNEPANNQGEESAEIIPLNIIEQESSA
Type: cell-based
Text: Upon activation by a ligand, Gas-coupled GPCRs can upregulate intracellular cAMP level, and cAMP, as a second messenger, can mediate a series of cellular responses. The cAMP Hunter HEK293-CT-R Gs cell line, which overexpresses Gas-coupled calcitonin receptors (CTR), was used. The binding of calcitonin (or an analog thereof) to the overexpressed CTR upregulates intracellular cAMP level. The amount of intracellular cAMP produced after activation by the calcitonin (or an analog thereof) was detected using a cAMP Dynamic 2 Kit to evaluate the biological activity of the calcitonin (or an analog thereof). HEK293 cell line stably expressing CT-R was used. Stably transfected cells were stimulated with various concentrations of agonists. The time-resolved fluorescence resonance energy signal from the cells after stimulation with different doses was measured using HTRF technology, from which the biological activity of the agonist was subsequently calculated.
`CC(C)C[C@H](NC(=O)[C@H](CCCCN)NC(=O)CNC(=O)[C@H](CC(C)C)NC(=O)[C@@H](NC(=O)[C@@H]1CSSC[C@H](N)C(=O)N[C@@H](CO)C(=O)N[C@@H](CC(N)=O)C(=O)N[C@@H](CC(C)C)C(=O)N[C@@H](CO)C(=O)N[C@@H]([C@@H](C)O)C(=O)N1)C(C)C)C(=O)N[C@@H](CO)C(=O)N[C@@H](CCC(N)=O)C(=O)N[C@@H](CCC(=O)O)C(=O)N[C@@H](CC(C)C)C(=O)N[C@@H](Cc1c[nH]cn1)C(=O)N[C@@H](CCCCNC(=O)COCCOCCNC(=O)COCCOCCNC(=O)CC[C@H](NC(=O)CCCCCCCCCCCCCCCCC(=O)O)C(=O)O)C(=O)N[C@@H](CC(C)C)C(=O)N[C@@H](CCC(N)=O)C(=O)N[C@H](C(=O)N[C@@H](Cc1ccc(O)cc1)C(=O)N1CCC[C@H]1C(=O)N[C@@H](CCCNC(=N)N)C(=O)N[C@H](C(=O)N[C@@H](CC(N)=O)C(=O)N[C@H](C(=O)NCC(=O)N[C@@H](CO)C(=O)NCC(=O)N[C@H](C(=O)N1CCC[C@H]1C(N)=O)[C@@H](C)O)[C@@H](C)O)[C@@H](C)O)[C@@H](C)O` [Compound 19, Cys-Ser-Asn-Leu-Ser-Thr-Cys-Val-Leu-Gly-Lys-Leu-Ser-Gln-Glu-Leu-His-Lys(AEEA-AEEA-γGlu-octadecanedioic acid)-Leu-Gln-Thr-Tyr-P ro-Arg-Thr-Asn-Thr-Gly-Ser-Gly-Thr-Pro-NH2] showed an EC50 of 3.7 pM. For `CC(C)C[C@H](NC(=O)[C@H](CCCCN)NC(=O)CNC(=O)[C@H](CC(C)C)NC(=O)[C@@H](NC(=O)[C@@H]1CSSC[C@H](N)C(=O)N[C@@H](CO)C(=O)N[C@@H](CC(N)=O)C(=O)N[C@@H](CC(C)C)C(=O)N[C@@H](CO)C(=O)N[C@@H]([C@@H](C)O)C(=O)N1)C(C)C)C(=O)N[C@@H](CO)C(=O)N[C@@H](CCC(N)=O)C(=O)N[C@@H](CCC(=O)O)C(=O)N[C@@H](CC(C)C)C(=O)N[C@@H](Cc1c[nH]cn1)C(=O)N[C@@H](CCCCNC(=O)CNC(=O)CNC(=O)[C@H](CO)NC(=O)CNC(=O)[C@H](CO)NC(=O)CNC(=O)CC[C@H](NC(=O)CCCCCCCCCCCCCCCCCCC(=O)O)C(=O)O)C(=O)N[C@@H](CC(C)C)C(=O)N[C@@H](CCC(N)=O)C(=O)N[C@H](C(=O)N[C@@H](Cc1ccc(O)cc1)C(=O)N1CCC[C@H]1C(=O)N[C@@H](CCCNC(=N)N)C(=O)N[C@H](C(=O)N[C@@H](CC(N)=O)C(=O)N[C@H](C(=O)NCC(=O)N[C@@H](CO)C(=O)NCC(=O)N[C@H](C(=O)N1CCC[C@H]1C(N)=O)[C@@H](C)O)[C@@H](C)O)[C@@H](C)O)[C@@H](C)O` [Compound 8], the EC50 was 3.7 pM. Work on `CC(C)C[C@H](NC(=O)[C@H](CCCCN)NC(=O)CNC(=O)[C@H](CC(C)C)NC(=O)[C@@H](NC(=O)[C@@H]1CSSC[C@H](N)C(=O)N[C@@H](CO)C(=O)N[C@@H](CC(N)=O)C(=O)N[C@@H](CC(C)C)C(=O)N[C@@H](CO)C(=O)N[C@@H]([C@@H](C)O)C(=O)N1)C(C)C)C(=O)N[C@@H](CO)C(=O)N[C@@H](CCC(N)=O)C(=O)N[C@@H](CCC(=O)O)C(=O)N[C@@H](CC(C)C)C(=O)N[C@@H](Cc1c[nH]cn1)C(=O)N[C@@H](CCCCNC(=O)CNC(=O)CC[C@H](NC(=O)CCCCCCCCCCCCCCCCCCC(=O)O)C(=O)O)C(=O)N[C@@H](CC(C)C)C(=O)N[C@@H](CCC(N)=O)C(=O)N[C@H](C(=O)N[C@@H](Cc1ccc(O)cc1)C(=O)N1CCC[C@H]1C(=O)N[C@@H](CCCNC(=N)N)C(=O)N[C@H](C(=O)N[C@@H](CC(N)=O)C(=O)N[C@H](C(=O)NCC(=O)N[C@@H](CO)C(=O)NCC(=O)N[C@H](C(=O)N1CCC[C@H]1C(N)=O)[C@@H](C)O)[C@@H](C)O)[C@@H](C)O)[C@@H](C)O` [Compound 10, Cys-Ser-Asn-Leu-Ser-Thr-Cys-Val-Leu-Gly-Lys-Leu-Ser-Gln-Glu-Leu-His-Lys(Gly-yGlu-eicosanedioic acid)-Leu-Gln-Thr-Tyr-Pro-Arg-Thr-Asn-Thr-Gly-Ser-Gly-Thr-Pro-NH2] yielded an EC50 of 4.9 pM. `CC(C)C[C@H](NC(=O)[C@H](CCCCN)NC(=O)CNC(=O)[C@H](CC(C)C)NC(=O)[C@@H](NC(=O)[C@@H]1CSSC[C@H](N)C(=O)N[C@@H](CO)C(=O)N[C@@H](CC(N)=O)C(=O)N[C@@H](CC(C)C)C(=O)N[C@@H](CO)C(=O)N[C@@H]([C@@H](C)O)C(=O)N1)C(C)C)C(=O)N[C@@H](CO)C(=O)N[C@@H](CCC(N)=O)C(=O)N[C@@H](CCC(=O)O)C(=O)N[C@@H](CC(C)C)C(=O)N[C@@H](Cc1c[nH]cn1)C(=O)N[C@@H](CCCCNC(=O)CNC(=O)[C@H](CO)NC(=O)CNC(=O)[C@H](CO)NC(=O)CC[C@H](NC(=O)CCCCCCCCCCCCCCCCCCC(=O)O)C(=O)O)C(=O)N[C@@H](CC(C)C)C(=O)N[C@@H](CCC(N)=O)C(=O)N[C@H](C(=O)N[C@@H](Cc1ccc(O)cc1)C(=O)N1CCC[C@H]1C(=O)N[C@@H](CCCNC(=N)N)C(=O)N[C@H](C(=O)N[C@@H](CC(N)=O)C(=O)N[C@H](C(=O)NCC(=O)N[C@@H](CO)C(=O)NCC(=O)N[C@H](C(=O)N1CCC[C@H]1C(N)=O)[C@@H](C)O)[C@@H](C)O)[C@@H](C)O)[C@@H](C)O` [Compound 7] gave an EC50 of 4.4 pM.

Same assay, conditions: relative to Salmon Calcitonin = 100.0; HEK293 CT-R cAMP
In the case of `CC(C)C[C@H](NC(=O)[C@H](CCCCN)NC(=O)CNC(=O)[C@H](CC(C)C)NC(=O)[C@@H](NC(=O)[C@@H]1CSSC[C@H](N)C(=O)N[C@@H](CO)C(=O)N[C@@H](CC(N)=O)C(=O)N[C@@H](CC(C)C)C(=O)N[C@@H](CO)C(=O)N[C@@H]([C@@H](C)O)C(=O)N1)C(C)C)C(=O)N[C@@H](CO)C(=O)N[C@@H](CCC(N)=O)C(=O)N[C@@H](CCC(=O)O)C(=O)N[C@@H](CC(C)C)C(=O)N[C@@H](Cc1c[nH]cn1)C(=O)N[C@@H](CCCCNC(=O)COCCOCCNC(=O)CC[C@H](NC(=O)CCCCCCCCCCCCCCCCCCC(=O)O)C(=O)O)C(=O)N[C@@H](CC(C)C)C(=O)N[C@@H](CCC(N)=O)C(=O)N[C@H](C(=O)N[C@@H](Cc1ccc(O)cc1)C(=O)N1CCC[C@H]1C(=O)N[C@@H](CCCNC(=N)N)C(=O)N[C@H](C(=O)N[C@@H](CC(N)=O)C(=O)N[C@H](C(=O)NCC(=O)N[C@@H](CO)C(=O)NCC(=O)N[C@H](C(=O)N1CCC[C@H]1C(N)=O)[C@@H](C)O)[C@@H](C)O)[C@@H](C)O)[C@@H](C)O` [Compound 2, Cys-Ser-Asn-Leu-Ser-Thr-Cys-Val-Leu-Gly-Lys-Leu-Ser-Gln-Glu-Leu-His-Lys(PEG2CH2CO-γGlu-eicosanedioic acid)-Leu-Gln-Thr-Tyr-Pro-Arg-Thr-Asn-Thr-Gly-Ser-Gly-Thr-Pro-NH2], the “Relative Activity%” value is reported as 231.7%. With `CC(C)C[C@H](NC(=O)[C@H](CCCCN)NC(=O)CNC(=O)[C@H](CC(C)C)NC(=O)[C@@H](NC(=O)[C@@H]1CSSC[C@H](N)C(=O)N[C@@H](CO)C(=O)N[C@@H](CC(N)=O)C(=O)N[C@@H](CC(C)C)C(=O)N[C@@H](CO)C(=O)N[C@@H]([C@@H](C)O)C(=O)N1)C(C)C)C(=O)N[C@@H](CO)C(=O)N[C@@H](CCC(N)=O)C(=O)N[C@@H](CCC(=O)O)C(=O)N[C@@H](CC(C)C)C(=O)N[C@@H](Cc1c[nH]cn1)C(=O)N[C@@H](CCCCNC(=O)COCCOCCOCCOCCOCCOCCNC(=O)CC[C@H](NC(=O)CCCCCCCCCCCCCCCCCCC(=O)O)C(=O)O)C(=O)N[C@@H](CC(C)C)C(=O)N[C@@H](CCC(N)=O)C(=O)N[C@H](C(=O)N[C@@H](Cc1ccc(O)cc1)C(=O)N1CCC[C@H]1C(=O)N[C@@H](CCCNC(=N)N)C(=O)N[C@H](C(=O)N[C@@H](CC(N)=O)C(=O)N[C@H](C(=O)NCC(=O)N[C@@H](CO)C(=O)NCC(=O)N[C@H](C(=O)N1CCC[C@H]1C(N)=O)[C@@H](C)O)[C@@H](C)O)[C@@H](C)O)[C@@H](C)O` [Compound 6, Cys-Ser-Asn-Leu-Ser-Thr-Cys-Val-Leu-Gly-Lys-Leu-Ser-Gln-Glu-Leu-His-Lys(PEG6CH2CO-yGlu-eicosanedioic acid)-Leu-Gln-Thr-Tyr-Pro-Arg-Thr-Asn-Thr-Gly-Ser-Gly-Thr-Pro-NH2] the “Relative Activity%” value was 172.7%. `CC(C)C[C@H](NC(=O)[C@H](CCCCN)NC(=O)CNC(=O)[C@H](CC(C)C)NC(=O)[C@@H](NC(=O)[C@@H]1CSSC[C@H](N)C(=O)N[C@@H](CO)C(=O)N[C@@H](CC(N)=O)C(=O)N[C@@H](CC(C)C)C(=O)N[C@@H](CO)C(=O)N[C@@H]([C@@H](C)O)C(=O)N1)C(C)C)C(=O)N[C@@H](CO)C(=O)N[C@@H](CCC(N)=O)C(=O)N[C@@H](CCC(=O)O)C(=O)N[C@@H](CC(C)C)C(=O)N[C@@H](Cc1c[nH]cn1)C(=O)N[C@@H](CCCCNC(=O)COCCNC(=O)CC[C@H](NC(=O)CCCCCCCCCCCCCCCCCCC(=O)O)C(=O)O)C(=O)N[C@@H](CC(C)C)C(=O)N[C@@H](CCC(N)=O)C(=O)N[C@H](C(=O)N[C@@H](Cc1ccc(O)cc1)C(=O)N1CCC[C@H]1C(=O)N[C@@H](CCCNC(=N)N)C(=O)N[C@H](C(=O)N[C@@H](CC(N)=O)C(=O)N[C@H](C(=O)NCC(=O)N[C@@H](CO)C(=O)NCC(=O)N[C@H](C(=O)N1CCC[C@H]1C(N)=O)[C@@H](C)O)[C@@H](C)O)[C@@H](C)O)[C@@H](C)O` [Compound 1, Cys-Ser-Asn-Leu-Ser-Thr-Cys-Val-Leu-Gly-Lys-Leu-Ser-Gln-Glu-Leu-His-Lys(PEG1CH2CO-γGlu-eicosanedioic acid)-Leu-Gln-Thr-Tyr-Pro-Arg-Thr-Asn-Thr-Gly-Ser-Gly-Thr-Pro-NH2] was tested, and the “Relative Activity%” value was 206.5%.
